Results taken from US20240398805A1, “QUINAZOLINE DERIVED COMPOUNDS AS EGFR INHIBITORS AND THEIR USES THEREOF” (ACCUTAR BIOTECHNOLOGY INC., priority 2021, published 2024).

How the values were obtained:
Type in all cases: cell-based
[1] = system: HCC827-SVD cells (human EGFR exon 20 insertion mutant D770_N771 insSVD); assay: Cell growth inhibition (CellTiter-Glo, 3 days) in HCC827-SVD; conditions: 72 h, 3 days after administration
Procedure, shortened: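 HCC827 cells carrying lentiviral codon-optimized EGFR D770_N771 insSVD, with endogenous EGFR knocked out by CRISPR (single clone), seeded at 5000 cells/well in RPMI with 10% FBS. Viability read by CellTiter-Glo luminescence.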

[2] = system: HCC827 cells; assay: Cell growth inhibition (CellTiter-Glo, 3 days) in HCC827; conditions: Homo sapiens, 72 h, 3 days after administration
Procedure, shortened: (§1)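 Growth inhibition was scored by CellTiter-Glo luminescence after 3-day compound exposure at various concentrations. Cells were plated at 5000/well the day before treatment: A431 in DMEM and HCC827 in RPMI, each with 10% FBS.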

[3] = system: HCC827-ASV cells (human EGFR exon 20 insertion mutant A769_D770insASV); assay: Cell growth inhibition (CellTiter-Glo, 3 days) in HCC827-ASV; conditions: 72 h, 3 days after administration
Procedure, shortened: (§2)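 Growth inhibition used a CellTiter-Glo luminescence read-out after 3 days of compound exposure at various concentrations. Cells were plated the day before at 5000/well in RPMI plus 10% FBS. The lines are HCC827 transduced by lentivirus with codon-optimized EGFR ASV or ERBB2 YVMA exon 20 insertions.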

[4] = system: A431 cells; assay: Cell growth inhibition (CellTiter-Glo, 3 days) in A431; conditions: Homo sapiens, A-431, 72 h, 3 days after administration
Procedure, shortened: as §1

[5] = system: HCC827-YVMA cells (human ERBB2 exon20 insertion mutant A775_G776ins YVMA); assay: Cell growth inhibition (CellTiter-Glo, 3 days) in HCC827-YVMA; conditions: 72 h, 3 days after administration
Procedure, shortened: as §2

GI50 [1]	GI50 [2]	GI50 [3]	GI50 [4]	GI50 [5]	Compound
600 to 1000 nM	≥ 1000 nM	300 to 600 nM	≥ 1000 nM	600 to 1000 nM	C=CC(=O)N1CCC(Nc2cc3c(Nc4ccc(Oc5ccnc(-c6cncs6)c5)cc4F)ncnc3cc2OC)CC1 [Example 42, 1-(4-((4-((2-fluoro-4-((2-(thiazol-5-yl)pyridin-4-yl)oxy)phenyl)amino)-7-methoxyquinazolin-6-yl)amino)piperidin-1-yl)prop-2-en-1-one]
100 to 300 nM	300 to 600 nM	60 to 100 nM	100 to 300 nM	100 to 300 nM	C=CC(=O)N1CCC(Nc2cc3c(Nc4ccc(Oc5ccn(-c6cnc(C)cn6)n5)cc4F)ncnc3cc2OC)CC1 [Example 33, 1-(4-((4-((2-fluoro-4-((1-(5-methylpyrazin-2-yl)-1H-pyrazol-3-yl)oxy)phenyl)amino)-7-methoxyquinazolin-6-yl)amino)piperidin-1-yl)prop-2-en-1-one]
< 30 nM	30 to 60 nM	< 30 nM	100 to 300 nM	< 30 nM	C=CC(=O)N1CCC(Nc2cc3c(Nc4ccc(Oc5ccnc(NC6CCCC6)c5)cc4F)ncnc3cc2OC)CC1 [Example 246, 1-(4-((4-((4-((2-(cyclopentylamino)pyridin-4-yl)oxy)-2-fluorophenyl)amino)-7-methoxyquinazolin-6-yl)amino)piperidin-1-yl)prop-2-en-1-one]
30 to 60 nM	100 to 300 nM	30 to 60 nM	300 to 600 nM	30 to 60 nM	C=CC(=O)N1CCC(Nc2cc3c(Nc4ccc(Oc5ccnc(N6CC7CCC(C6)O7)c5)cc4F)ncnc3cc2OC)CC1 [Example 130, 1-(4-((4-((4-((2-(8-oxa-3-azabicyclo[3.2.1]octan-3-yl)pyridin-4-yl)oxy)-2-fluorophenyl)amino)-7-methoxyquinazolin-6-yl)amino)piperidin-1-yl)prop-2-en-1-one]
≥ 1000 nM	≥ 1000 nM	≥ 1000 nM	≥ 1000 nM	≥ 1000 nM	CC#CC(=O)N1CCC(Nc2cc3c(Nc4ccc(Oc5ccn(-c6cnc(C)c(F)c6)n5)cc4F)ncnc3cc2OC)CC1 [Example 24, 1-(4-((4-((2-fluoro-4-((1-(5-fluoro-6-methylpyridin-3-yl)-1H-pyrazol-3-yl)oxy)phenyl)amino)-7-methoxyquinazolin-6-yl)amino)piperidin-1-yl)but-2-yn-1-one]
60 to 100 nM	60 to 100 nM	30 to 60 nM	≥ 1000 nM	30 to 60 nM	C=CC(=O)N1CCC(Nc2cc3c(Nc4ccc(Oc5ccn(-c6ccc(C)c(F)n6)n5)cc4F)ncnc3cc2OC)CC1 [Example 93, 1-(4-((4-((2-fluoro-4-((1-(6-fluoro-5-methylpyridin-2-yl)-1H-pyrazol-3-yl)oxy)phenyl)amino)-7-methoxyquinazolin-6-yl)amino)piperidin-1-yl)prop-2-en-1-one]
30 to 60 nM	600 to 1000 nM	60 to 100 nM	≥ 1000 nM	60 to 100 nM	C=CC(=O)N1CCC(Nc2cc3c(Nc4ccc(Oc5ccnc(-c6cnn(C)c6)c5)cc4F)ncnc3cc2OC)CC1 [Compound 34, 1-(4-((4-((2-fluoro-4-((2-(1-methyl-1H-pyrazol-4-yl)pyridin-4-yl)oxy)phenyl)amino)-7-methoxyquinazolin-6-yl)amino)piperidin-1-yl)prop-2-en-1-one]
< 30 nM	< 30 nM	< 30 nM	300 to 600 nM	30 to 60 nM	C=CC(=O)N1CCC(Nc2cc3c(Nc4ccc(Oc5ccnc(N6CCC(C)(C)C6)c5)cc4F)ncnc3cc2OC)CC1 [Example 153, 1-(4-((4-((4-((2-(3,3-dimethylpyrrolidin-1-yl)pyridin-4-yl)oxy)-2-fluorophenyl)amino)-7-methoxyquinazolin-6-yl)amino)piperidin-1-yl)prop-2-en-1-one]
30 to 60 nM	≥ 1000 nM	30 to 60 nM	≥ 1000 nM	100 to 300 nM	C=CC(=O)N1CCC(Oc2cc3c(Nc4ccc(Oc5ccnc(N6C[C@H](OC)[C@H](OC)C6)c5)cc4F)ncnc3cc2OC)CC1 [Example 163, 1-(4-((4-((4-((2-((3R,4S)-3,4-dimethoxypyrrolidin-1-yl)pyridin-4-yl)oxy)-2-fluorophenyl)amino)-7-methoxyquinazolin-6-yl)oxy)piperidin-1-yl)prop-2-en-1-one]
< 30 nM	100 to 300 nM	< 30 nM	100 to 300 nM	< 30 nM	C=CC(=O)N1CCC(Nc2cc3c(Nc4ccc(Oc5ccnc(N6CCCC(C#N)C6)c5)cc4F)ncnc3cc2OC)CC1 (centres unmarked) [Example 221, 1-(4-(4-((6-((1-acryloylpiperidin-4-yl)amino)-7-methoxyquinazolin-4-yl)amino)-3-fluorophenoxy)pyridin-2-yl)piperidine-3-carbonitrile]
100 to 300 nM	100 to 300 nM	60 to 100 nM	300 to 600 nM	100 to 300 nM	C=CC(=O)N1CCC(Nc2cc3c(Nc4ccc(Oc5ccnc(N6CC(O)C6)c5)cc4F)ncnc3cc2OC)CC1 [Example 139, 1-(4-((4-((2-fluoro-4-((2-(3-hydroxyazetidin-1-yl)pyridin-4-yl)oxy)phenyl)amino)-7-methoxyquinazolin-6-yl)amino)piperidin-1-yl)prop-2-en-1-one]
100 to 300 nM	300 to 600 nM	60 to 100 nM	100 to 300 nM	100 to 300 nM	C=CC(=O)N1CCC(Nc2cc3c(Nc4ccc(Oc5ccnc(N6CC(OC)C6)c5)cc4F)ncnc3cc2OC)CC1 [Example 119, 1-(4-((4-((2-fluoro-4-((2-(3-methoxyazetidin-1-yl)pyridin-4-yl)oxy)phenyl)amino)-7-methoxyquinazolin-6-yl)amino)piperidin-1-yl)prop-2-en-1-one]
100 to 300 nM	300 to 600 nM	60 to 100 nM	≥ 1000 nM	100 to 300 nM	C=CC(=O)N1CCC(Nc2cc3c(Nc4ccc(Oc5ccnc(N6CC[C@@H](OC)C6)c5)cc4F)ncnc3cc2OC)CC1 [Example 114, (R)-1-(4-((4-((2-fluoro-4-((2-(3-methoxypyrrolidin-1-yl)pyridin-4-yl)oxy)phenyl)amino)-7-methoxyquinazolin-6-yl)amino)piperidin-1-yl)prop-2-en-1-one]
< 30 nM	< 30 nM	< 30 nM	100 to 300 nM	< 30 nM	C=CC(=O)N1CCC(Nc2cc3c(Nc4ccc(OCc5ccccn5)c(Cl)c4)ncnc3cc2OCCN2CCOCC2)CC1 [Example 95, 1-(4-((4-((3-chloro-4-(pyridin-2-ylmethoxy)phenyl)amino)-7-(2-morpholinoethoxy)quinazolin-6-yl)amino)piperidin-1-yl)prop-2-en-1-one]
< 30 nM	100 to 300 nM	30 to 60 nM	300 to 600 nM	30 to 60 nM	C=CC(=O)N1CCC(Nc2cc3c(Nc4ccc(Oc5ccnc(N6CC[C@@H](CO)C6)c5)cc4F)ncnc3cc2OC)CC1 [Example 251, (R)-1-(4-((4-((2-fluoro-4-((2-(3-(hydroxymethyl)pyrrolidin-1-yl)pyridin-4-yl)oxy)phenyl)amino)-7-methoxyquinazolin-6-yl)amino)piperidin-1-yl)prop-2-en-1-one]
< 30 nM	< 30 nM	< 30 nM	100 to 300 nM	< 30 nM	C=CC(=O)N1CCC(Nc2cc3c(Nc4ccc(Oc5nc(-c6ccc(OC)nc6)cs5)cc4F)ncnc3cc2OC)CC1 [Example 55, 1-(4-((4-((2-fluoro-4-((4-(6-methoxypyridin-3-yl)thiazol-2-yl)oxy)phenyl)amino)-7-methoxyquinazolin-6-yl)amino)piperidin-1-yl)prop-2-en-1-one]
≥ 1000 nM	≥ 1000 nM	≥ 1000 nM	≥ 1000 nM	300 to 600 nM	COc1cc2ncnc(Nc3ccc(Oc4ccn(-c5cnc(C)c(F)c5)n4)cc3F)c2cc1NC1CCN(C(=O)/C=C/CN(C)C)CC1 [Compound 21, (2E)-4-(dimethylamino)-1-[4-({4-[(2-fluoro-4-{[1-(5-fluoro-6-methylpyridin-3-yl)pyrazol-3-yl]oxy}phenyl)amino]-7-methoxyquinazolin-6-yl}amino)piperidin-1-yl]but-2-en-1-one]
100 to 300 nM	100 to 300 nM	100 to 300 nM	300 to 600 nM	100 to 300 nM	C=CC(=O)N1CCC(Nc2cc3c(Nc4ccc(Oc5ccnc(N6CCCCC6)c5)cc4F)ncnc3cc2OC)CC1 [Compound 100, 1-(4-((4-((2-fluoro-4-((2-(piperidin-1-yl)pyridin-4-yl)oxy)phenyl)amino)-7-methoxyquinazolin-6-yl)amino)piperidin-1-yl)prop-2-en-1-one]
< 30 nM	60 to 100 nM	< 30 nM	600 to 1000 nM	< 30 nM	C=CC(=O)N1CCC(Nc2cc3c(Nc4ccc(Oc5ccnc(N6C[C@@H]7OCCO[C@@H]7C6)n5)cc4F)ncnc3cc2OC)CC1 [Example 257, 1-(4-((4-((2-fluoro-4-((2-((4aR,7aS)-hexahydro-6H-[1,4]dioxino[2,3-c]pyrrol-6-yl)pyrimidin-4-yl)oxy)phenyl)amino)-7-methoxyquinazolin-6-yl)amino)piperidin-1-yl)prop-2-en-1-one]
